Read-outs that look alike come from different tables or passages of the source.
Target: T1, Nanoluciferase-BRD9 fusion protein (3×FLAG-NLuc-BRD9) in SYO-1 cells (Homo sapiens, UniProt Q9H8M2)
T1 construct: expressed in transfected cells; host or cells: SYO-1
T1 sequence (Q9H8M2 1-597): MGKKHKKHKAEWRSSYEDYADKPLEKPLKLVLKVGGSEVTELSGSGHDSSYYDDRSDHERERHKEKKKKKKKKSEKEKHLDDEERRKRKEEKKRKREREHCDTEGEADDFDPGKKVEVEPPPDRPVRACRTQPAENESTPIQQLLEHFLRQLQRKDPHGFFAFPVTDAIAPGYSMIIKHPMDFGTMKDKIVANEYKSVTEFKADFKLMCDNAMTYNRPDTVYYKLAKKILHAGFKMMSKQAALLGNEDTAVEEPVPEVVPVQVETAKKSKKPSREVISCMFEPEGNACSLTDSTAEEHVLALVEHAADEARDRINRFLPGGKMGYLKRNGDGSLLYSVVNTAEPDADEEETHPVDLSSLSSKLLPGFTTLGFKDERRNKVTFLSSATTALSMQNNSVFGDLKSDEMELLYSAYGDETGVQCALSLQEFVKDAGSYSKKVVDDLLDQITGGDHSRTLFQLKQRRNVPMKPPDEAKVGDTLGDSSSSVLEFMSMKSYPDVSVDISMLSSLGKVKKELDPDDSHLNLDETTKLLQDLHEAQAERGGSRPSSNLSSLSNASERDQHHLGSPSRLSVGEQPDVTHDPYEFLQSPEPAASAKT
Experiment: SYO1 BRD9 NanoLuc degradation assay
Format: cell-based
Settings: SYO-1 cells expressing 3×FLAG-NLuc-BRD9, 6 hours incubation, 1 μM top dose, read-out: SYO1 BRD9-NanoLuc degradation IC50
Description: Procedure: A stable SYO-1 cell line expressing 3×FLAG-NLuc-BRD9 was generated. On day 0 cells were seeded in 30 μL media into each well of 384-well cell culture plates. The seeding density was 8000 cells/well. On day 1, cells were treated with 30 nL DMSO or 30 nL of 3-fold serially DMSO-diluted compounds (10 points in duplicates with 1 μM as final top dose). Subsequently plates were incubated for 6 hours in a standard tissue culture incubator and equilibrated at room temperature for 15 minutes. Nanoluciferase activity was measured by adding 15 μL of freshly prepared Nano-Glo Luciferase Assay Reagent (Promega N1130), shaking the plates for 10 minutes and reading the bioluminescence using an EnVision reader. • Results: The Inhibition % was calculated using the following formula: % Inhibition=100×(LumHC−LumSample)/(LumHC−LumLC). DMSO treated cells are employed as High Control (HC) and 1 μM of a known BRD9 degrader standard treated cells are employed as Low Control (LC).

Row | DC50 (Table 6C) | DC50 (Table 6B) | Compound
1 | < 10 nM |  | COc1cc(-c2cn(C)c(=O)c3cc(C(=O)NC4CCN(CCCCCOc5ccc6c(c5)C(=O)N(C5CCC(=O)NC5=O)C6)CC4(F)F)sc23)cc(OC)c1CN(C)C (centres unmarked) [Compound D159]
2 | < 10 nM |  | COc1cc(-c2cn(C)c(=O)c3cc(C(=O)NC4CCN(c5ccc6c(c5)C(=O)N(C5CCC(=O)NC5=O)C6)CC4)sc23)cc(OC)c1CN(C)C (centres unmarked) [Compound D146]
3 | < 10 nM |  | COc1cc(-c2cn(C)c(=O)c3cc(C(=O)NC4CN(c5ccc6c(c5)CN(C5CCC(=O)NC5=O)C6=O)CC4(F)F)sc23)cc(OC)c1CN(C)C (centres unmarked) [Compound D180]
4 | < 10 nM |  | COc1cc(-c2cn(C)c(=O)c3cc(C(=O)NC4CCN(C5CCN(c6ccc7c(c6)C(=O)N(C6CCC(=O)NC6=O)C7)CC5(F)F)CC4)sc23)cc(OC)c1CN(C)C (centres unmarked) [Compound D126]
5 | < 10 nM |  | CNC(=O)c1cc2c(=O)n(C)cc(-c3cc(OC)c(CN4CCC5(CC4)CN(c4ccc6c(c4)C(=O)N(C4CCC(=O)NC4=O)C6)C5)c(OC)c3)c2s1 (centres unmarked) [Compound D138]
6 | < 10 nM |  | COc1cc(-c2cn(C)c(=O)c3cc(C(=O)NC4CCN(c5ccc6c(c5)C(=O)N(C5CCC(=O)NC5=O)C6=O)CC4(F)F)sc23)cc(OC)c1CN(C)C (centres unmarked) [Compound D192]
7 | < 10 nM |  | COc1cc(OC)cc(-c2cn(C)c(=O)c3cc(C(=O)NC4CCN(c5ccc6c(c5)C(=O)N(C5CCC(=O)NC5=O)C6)CC4(F)F)sc23)c1 (centres unmarked) [Compound D131]
8 |  | < 10 nM | COc1cc(-c2cn(C)c(=O)c3cc(C(=O)NC4CCN(CCN5CCC6(CC5)CN(c5ccc7c(c5)CN(C5CCC(=O)NC5=O)C7=O)C6)CC4(F)F)sc23)cc(OC)c1CN(C)C (centres unmarked) [Compound D19]
9 |  | < 10 nM | COc1cc(-c2cn(C)c(=O)c3cc(C(=O)NC4CCN(CCCN5CCN(c6ccc7c(c6)C(=O)N(C6CCC(=O)NC6=O)C7=O)CC5)CC4(F)F)sc23)cc(OC)c1CN(C)C (centres unmarked) [Compound D60]
10 |  | < 10 nM | COc1cc(-c2cn(C)c(=O)c3cc(C(=O)NC4CCN(C5CCN(c6ccc7c(c6)C(=O)N(C6CCC(=O)NC6=O)C7)CC5)CC4(F)F)sc23)cc(OC)c1CN(C)C (centres unmarked) [Compound D24]
11 |  | < 10 nM | COc1cc(-c2cn(C)c(=O)c3cc(C(=O)NC4CCN(CCN5CCN(c6ccc7c(c6)CN(C6CCC(=O)NC6=O)C7=O)CC5)CC4(F)F)sc23)cc(Cl)c1CN(C)C (centres unmarked) [Compound D17]
12 | < 10 nM |  | COc1cc(-c2cn(C)c(=O)c3cc(C(=O)NC4CN(C5CCN(c6ccc7c(c6)C(=O)N(C6CCC(=O)NC6=O)C7)CC5)CC4(F)F)sc23)cc(OC)c1CN(C)C (centres unmarked) [Compound D182]
13 | < 10 nM |  | COc1cc(-c2cn(C)c(=O)c3cc(C(=O)N(C)C)sc23)cc(OC)c1CN1CCC2(CC1)CN(c1ccc3c(c1)C(=O)N(C1CCC(=O)NC1=O)C3)C2 (centres unmarked) [Compound D133]

The next lines start with the molecule.

Row | Compound | DC50 (Table 6C) | DC50 (Table 6B)
14 | COc1cc(-c2cn(C)c(=O)c3scnc23)cc(OC)c1CN1CC(CN2CCC3(CC2)CN(c2ccc4c(c2)C(=O)N(C2CCC(=O)NC2=O)C4)C3)C1 (centres unmarked) [Compound D20] |  | < 10 nM
15 | COc1cc(-c2cn(C)c(=O)c3ccsc23)cc(OC)c1CN1CCN(C(=O)c2csc(C(=O)c3c[nH]c4ccccc34)n2)CC1 [DD2] | > 1000 nM | 
16 | COc1cc(-c2cn(C)c(=O)c3sccc23)cc(OC)c1CN1CCC(CN2CCC3(CC2)CC(Oc2ccc4c(c2)CN(C2CCC(=O)NC2=O)C4=O)C3)CC1 (centres unmarked) [Compound D193] | < 10 nM | 
17 | COc1cc(-c2cn(C)c(=O)c3cc(C(=O)NC4CCN(CCCCCOc5ccc6c(c5)C(=O)N(C5CCC(=O)NC5=O)C6=O)CC4F)sc23)cc(OC)c1CN(C)C (centres unmarked) [Compound D85] |  | < 10 nM
18 | COc1cc(-c2cn(C)c(=O)c3cc(C(=O)NC4CCN(C(=O)CN5CCN(c6ccc7c(c6)C(=O)N(C6CCC(=O)NC6=O)C7=O)CC5)CC4)sc23)cc(OC)c1CN(C)C (centres unmarked) [Compound D77] |  | < 10 nM
19 | COc1cc(-c2cn(C)c(=O)c3ccsc23)cc(OC)c1CN1CCC2(CC1)CN(c1ccc3c(c1)C(=O)N(C1CCC(=O)NC1=O)C3=O)C2 (centres unmarked) [Compound D183] | < 10 nM | 
20 | COc1cc(-c2cn(C)c(=O)c3cc(C#N)sc23)cc(OC)c1CN1CC(C#Cc2ccc3c(c2)C(=O)N(C2CCC(=O)NC2=O)C3)C1 (centres unmarked) [Compound D91] | < 10 nM | 
21 | COc1cc(-c2cn(C)c(=O)c3cc(C(=O)NC4CCC45CCN(CCCN4CCN(c6ccc7c(c6)C(=O)N(C6CCC(=O)NC6=O)C7=O)CC4)CC5)sc23)cc(OC)c1CN(C)C (centres unmarked) [Compound D55] |  | > 100 nM
22 | COc1cc(-c2cn(C)c(=O)c3cc(C(=O)NC4CC5CC4CN5CCCCCOc4cccc5c4C(=O)N(C4CCC(=O)NC4=O)C5=O)sc23)cc(OC)c1CN(C)C (centres unmarked) [Compound D82] |  | > 100 nM
23 | COc1cc(-c2cn(C)c(=O)c3ccsc23)cc(OC)c1CN1CC(Oc2ccc3c(c2)C(=O)N(C2CCC(=O)NC2=O)C3=O)C1 (centres unmarked) [Compound D169] | < 10 nM | 
24 | COc1cc(-c2cn(C)c(=O)c3cc(C(=O)NCC4CC5(C4)CN(C(=O)CCN4CCN(c6ccc7c(c6)C(=O)N(C6CCC(=O)NC6=O)C7=O)CC4)C5)sc23)cc(OC)c1CN(C)C (centres unmarked) [Compound D51] |  | > 10 nM
25 | COc1cc(-c2cn(C)c(=O)c3cc(C(=O)NC4CC5(C4)CN(CCCN4CCN(c6ccc7c(c6)C(=O)N(C6CCC(=O)NC6=O)C7=O)CC4)C5)sc23)cc(OC)c1CN(C)C (centres unmarked) [Compound D75] |  | < 10 nM
26 | COc1cc(-c2cn(C)c(=O)c3cc(C(=O)NCC4CCN(CCCCOc5cccc6c5C(=O)N(C5CCC(=O)NC5=O)C6=O)CC4)sc23)cc(OC)c1CN(C)C (centres unmarked) [Compound D81] |  | > 100 nM
27 | COc1cc(-c2c(C)n(C)c(=O)c3cc(C(=O)NC4CCN(C)CC4(F)F)sc23)cc(OC)c1CN1CC(CN2CCC3(CC2)CN(c2ccc4c(c2)C(=O)N(C2CCC(=O)NC2=O)C4)C3)C1 (centres unmarked) [Compound D172] | > 1000 nM | 
28 | COc1cc(-c2cn(C)c(=O)c3cc(C(=O)NCC4CC5CN(C(=O)CCN6CCN(c7ccc8c(c7)C(=O)N(C7CCC(=O)NC7=O)C8=O)CC6)CC5C4)sc23)cc(OC)c1CN(C)C (centres unmarked) [Compound D34] |  | > 100 nM
29 | COc1cc(-c2cn(C)c(=O)c3cc(C(=O)NC4CCN(C(=O)CN5CCC6(CC5)CN(c5ccc7c(c5)C(=O)N(C5CCC(=O)NC5=O)C7=O)C6)CC4(F)F)sc23)cc(OC)c1CN(C)C (centres unmarked) [Compound D46] |  | < 10 nM
30 | COc1cc(-c2cn(C)c(=O)c3ccsc23)cc(OC)c1CN1CC(Oc2ccc3c(c2)CN(C2CCC(=O)NC2=O)C3=O)C1 (centres unmarked) [Compound D170] | < 10 nM | 
31 | COc1cc(-c2cn(C)c(=O)c3cc(C(C)C)sc23)cc(OC)c1CN1CCC2(CC1)CN(c1ccc3c(c1)C(=O)N(C1CCC(=O)NC1=O)C3)C2 (centres unmarked) [Compound D110] | < 10 nM | 
32 | COc1cc(-c2cn(C)c(=O)c3cc(C(=O)NCC4CC45CCN(CCN4CCN(c6ccc7c(c6)C(=O)N(C6CCC(=O)NC6=O)C7=O)CC4)CC5)sc23)cc(OC)c1CN(C)C (centres unmarked) [Compound D57] |  | < 10 nM
33 | COc1cc(-c2cn(C)c(=O)c3cc(C(=O)NC4CCC5CN(CCCN6CCN(c7ccc8c(c7)C(=O)N(C7CCC(=O)NC7=O)C8=O)CC6)CC54)sc23)cc(OC)c1CN(C)C (centres unmarked) [Compound D37] |  | < 10 nM
34 | COc1cc(-c2cn(C)c(=O)c3ccsc23)cc(OC)c1CN1[C@H](C)CN(c2ccc3c(c2)C(=O)N(C2CCC(=O)NC2=O)C3)C[C@H]1C (some centres unmarked) [Compound D144] | < 10 nM | 
35 | COc1cc(-c2cn(C)c(=O)c3cc(C(=O)NC4CC5CN(C(=O)CCN6CCN(c7ccc8c(c7)C(=O)N(C7CCC(=O)NC7=O)C8=O)CC6)CC5C4)sc23)cc(OC)c1CN(C)C (centres unmarked) [Compound D76] |  | > 10 nM
36 | [2H]C([2H])([2H])n1cc(-c2cc(OC)c(CN3CCN(c4ccc5c(c4)C(=O)N(C4CCC(=O)NC4=O)C5)CC3)c(OC)c2)c2sccc2c1=O (centres unmarked) [Compound D147] | < 10 nM | 
37 | COc1cc(-c2cn(C)c(=O)c3ccsc23)cc(OC)c1CN1CCC(CN2CCC3(CC2)CC(Oc2ccc4c(c2)CN(C2CCC(=O)NC2=O)C4=O)C3)CC1 (centres unmarked) [Compound D220] | < 10 nM | 
38 | COc1cc(-c2cn(C)c(=O)c3ccsc23)cc(OC)c1CN1CCC2(CC1)CN(c1ccc3c(c1)C(=O)N(C1CCC(=O)NC1=O)C3)C2 (centres unmarked) [Compound D186] | < 10 nM | 
39 | CCc1cc(OC)cc(-c2cn(C)c(=O)c3cc(C(=O)NC4CCN(c5ccc6c(c5)C(=O)N(C5CCC(=O)NC5=O)C6)CC4(F)F)sc23)c1 (centres unmarked) [Compound D129] | < 10 nM | 
40 | Cn1cc(-c2cccc(C(F)(F)F)c2)c2oc(C(=O)NC3CCN(c4ccc5c(c4)C(=O)N(C4CCC(=O)NC4=O)C5)CC3)cc2c1=O (centres unmarked) [Compound D211] | > 10 nM | 
41 | Cn1cc(-c2cccc(C(F)(F)F)c2)c2sc(C(=O)NC3CC4(CCN(c5ccc6c(c5)C(=O)N(C5CCC(=O)NC5=O)C6)CC4)C3)cc2c1=O (centres unmarked) [Compound D117] | < 10 nM | 
